Structures can show the parent of a compound that is named as a salt.
These compounds were tested against T1, human V1a receptor (Homo sapiens, UniProt P37288) (assay: human V1a receptor binding (3H-Vasopressin SPA, HEK293 membranes)). Conditions: membranes of HEK293 cells transiently transfected with human V1a receptor, Ki by Cheng-Prussoff, read-out: pKi (hV1a) (converted).
T1 construct: expressed in transfected cells; host or cells: HEK293 cells, transiently transfected; membranes prepared
Method: The human V1a receptor was cloned by RT-PCR from total human liver RNA. The coding sequence was subcloned in an expression vector after sequencing to confirm the identity of the amplified sequence. […] Cell membranes were prepared from HEK293 cells transiently transfected with the expression vector and grown in 20 liter fermenters with the following protocol.
50 g of cells are resuspended in 30 ml freshly prepared ice cold Lysis buffer (50 mM HEPES, 1 mM EDTA, 10 mM magnesium dichloride adjusted to pH=7.4+complete cocktail of protease inhibitor (Roche Diagnostics)). Homogenized with Polytron for 1 min and sonicated on ice for 2×2 minutes at 80% intensity (Vibracell sonicator). The preparation is centrifuged 20 min at 500 g at 4° C., the pellet is discarded and the supernatant centrifuged 1 hour at 43,000 g at 4° C. (19,000 rpm). The pellet is resuspended in 12.5 ml Lysis buffer+12.5 ml sucrose 20% and homogenized using a Polytron for 1-2 min. The protein concentration is determined by the Bradford method and aliquots are stored at −80° C. until use. For binding studies 60 mg Yttrium silicate SPA beads (Amersham®) are mixed with an aliquot of membrane in binding buffer (50 mM Tris, 120 mM sodium chloride, 5 mM potassium chloride, 2 mM calcium dichloride, 10 mM magnesium dichloride) for 15 minutes with mixing. 50 μl of bead/membrane mixture is then added to each well of a 96 well plate, followed by 50 μl of 4 nM 3H-Vasopressin (American Radiolabeled Chemicals). For total binding measurement 100 μl of binding buffer are added to the respective wells, for non-specific binding 100 μl of 8.4 mM cold vasopressin and for compound testing 100 μl of a serial dilution of each compound in 2% dimethyl sulfoxide. The plate is incubated 1 h at room temperature, centrifuged 1 min at 1000 g and counted on a Packard Top-Count. Non-specific binding counts are subtracted from each well and data is normalized to the maximum specific binding set at 100%. To calculate an IC50 the curve is fitted using a non-linear regression model (XLfit) and the Ki is calculated using the Cheng-Prussoff equation.

T1 sequence (P37288 whole entry): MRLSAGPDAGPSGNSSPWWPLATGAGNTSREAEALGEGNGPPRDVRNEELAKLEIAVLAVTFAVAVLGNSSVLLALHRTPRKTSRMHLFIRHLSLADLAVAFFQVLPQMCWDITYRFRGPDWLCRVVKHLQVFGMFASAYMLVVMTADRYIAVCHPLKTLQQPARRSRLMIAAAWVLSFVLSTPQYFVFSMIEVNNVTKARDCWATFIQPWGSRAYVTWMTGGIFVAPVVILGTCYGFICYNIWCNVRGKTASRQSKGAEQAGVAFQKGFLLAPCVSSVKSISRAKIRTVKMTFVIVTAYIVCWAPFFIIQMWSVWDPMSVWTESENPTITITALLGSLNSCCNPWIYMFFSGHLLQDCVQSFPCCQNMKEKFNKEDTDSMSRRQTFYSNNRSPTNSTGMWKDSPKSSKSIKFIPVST

| Compound | Ki [nM] |
| --- | --- |
| Cc1nc([C@H]2CC[C@H](c3nnc4n3-c3ccc(Cl)cc3CN(C)C4)CC2)ns1 (stereo in doubt) [Example 97, trans-8-Chloro-5-methyl-1-[4-(5-methyl-[1,2,4]thiadiazol-3-yl)-cyclohexyl]-5,6-dihydro-4H-2,3,5,10b-tetraaza-benzo[e]azulene] | 2.88 |
| CC(C)(C)OC(=O)N1Cc2cc(Cl)ccc2-n2c(nnc2[C@H]2CC[C@H](c3ncco3)CC2)C1 [Example 1, trans-8-Chloro-1-(4-oxazol-2-yl-cyclohexyl)-4H,6H-2,3,5,10b-tetraaza-benzo[e]azulene-5-carboxylic acid tert-butyl ester] | 1 |
| Clc1ccc2c(c1)CNCc1nnc([C@H]3CC[C@H](c4ncco4)CC3)n1-2 [Example 2, trans-8-Chloro-1-(4-oxazol-2-yl-cyclohexyl)-5,6-dihydro-4H-2,3,5,10b-tetraaza-benzo[e]azulene] | 53.7 |
| CN1Cc2cc(Cl)ccc2-n2c(nnc2[C@H]2CC[C@H](c3ncco3)CC2)C1 [Example 3, trans-8-Chloro-5-methyl-1-(4-oxazol-2-yl-cyclohexyl)-5,6-dihydro-4H-2,3,5,10b-tetraaza-benzo[e]azulene] | 10.5 |
| Cc1coc([C@H]2CC[C@H](c3nnc4n3-c3ccc(Cl)cc3CN(C(=O)OC(C)(C)C)C4)CC2)n1 [Example 4, trans-8-Chloro-1-[4-(4-methyl-oxazol-2-yl)-cyclohexyl]-4H,6H-2,3,5,10b-tetraaza-benzo[e]azulene-5-carboxylic acid tert-butyl ester] | 0.398 |
| Cc1coc([C@H]2CC[C@H](c3nnc4n3-c3ccc(Cl)cc3CNC4)CC2)n1 [Example 5, trans-8-Chloro-1-[4-(4-methyl-oxazol-2-yl)-cyclohexyl]-5,6-dihydro-4H-2,3,5,10b-tetraaza-benzo[e]azulene] | 32.4 |
| Cc1coc([C@H]2CC[C@H](c3nnc4n3-c3ccc(Cl)cc3CN(C)C4)CC2)n1 [Example 6, trans-8-Chloro-5-methyl-1-[4-(4-methyl-oxazol-2-yl)-cyclohexyl]-5,6-dihydro-4H-2,3,5,10b-tetraaza-benzo[e]azulene] | 3.31 |
| Cc1cnc([C@H]2CC[C@H](c3nnc4n3-c3ccc(Cl)cc3CN(C(=O)OC(C)(C)C)C4)CC2)o1 [Example 7, trans-8-Chloro-1-[4-(5-methyl-oxazol-2-yl)-cyclohexyl]-4H,6H-2,3,5,10b-tetraaza-benzo[e]azulene-5-carboxylic acid tert-butyl ester] | 0.603 |
| Cc1cnc([C@H]2CC[C@H](c3nnc4n3-c3ccc(Cl)cc3CNC4)CC2)o1 [Example 8, trans-8-Chloro-1-[4-(5-methyl-oxazol-2-yl)-cyclohexyl]-5,6-dihydro-4H-2,3,5,10b-tetraaza-benzo[e]azulene] | 18.6 |
| Cc1cnc([C@H]2CC[C@H](c3nnc4n3-c3ccc(Cl)cc3CN(C)C4)CC2)o1 [Example 9, trans-8-Chloro-5-methyl-1-[4-(5-methyl-oxazol-2-yl)-cyclohexyl]-5,6-dihydro-4H-2,3,5,10b-tetraaza-benzo[e]azulene] | 2.19 |
| Cc1nc([C@H]2CC[C@H](c3nnc4n3-c3ccc(Cl)cc3CN(C(=O)OC(C)(C)C)C4)CC2)oc1C [Example 10, trans-8-Chloro-1-[4-(4,5-dimethyl-oxazol-2-yl)-cyclohexyl]-4H,6H-2,3,5,10b-tetraaza-benzo[e]azulene-5-carboxylic acid tert-butyl ester] | 0.525 |
| Cc1nc([C@H]2CC[C@H](c3nnc4n3-c3ccc(Cl)cc3CNC4)CC2)oc1C [Example 11, trans-8-Chloro-1-[4-(4,5-dimethyl-oxazol-2-yl)-cyclohexyl]-5,6-dihydro-4H-2,3,5,10b-tetraaza-benzo[e]azulene] | 5.5 |
| Cc1nc([C@H]2CC[C@H](c3nnc4n3-c3ccc(Cl)cc3CN(C)C4)CC2)oc1C [Example 12, trans-8-Chloro-5-methyl-1-[4-(4,5-dimethyl-oxazol-2-yl)-cyclohexyl]-5,6-dihydro-4H-2,3,5,10b-tetraaza-benzo[e]azulene] | 0.851 |
| CC(C)(C)OC(=O)N1Cc2cc(Cl)ccc2-n2c(nnc2[C@H]2CC[C@H](c3nccs3)CC2)C1 [Example 13, trans-8-Chloro-1-(4-thiazol-2-yl-cyclohexyl)-4H,6H-2,3,5,10b-tetraaza-benzo[e]azulene-5-carboxylic acid tert-butyl ester] | 1 |
| Clc1ccc2c(c1)CNCc1nnc([C@H]3CC[C@H](c4nccs4)CC3)n1-2 [Example 14, trans-8-Chloro-1-(4-thiazol-2-yl-cyclohexyl)-5,6-dihydro-4H-2,3,5,10b-tetraaza-benzo[e]azulene] | 28.2 |
| CN1Cc2cc(Cl)ccc2-n2c(nnc2[C@H]2CC[C@H](c3nccs3)CC2)C1 [Example 15, trans-8-Chloro-5-methyl-1-(4-thiazol-2-yl-cyclohexyl)-5,6-dihydro-4H-2,3,5,10b-tetraaza-benzo[e]azulene] | 3.31 |
| Cc1csc([C@H]2CC[C@H](c3nnc4n3-c3ccc(Cl)cc3CN(C(=O)OC(C)(C)C)C4)CC2)n1 [Example 16, trans-8-Chloro-1-[4-(4-methyl-thiazol-2-yl)-cyclohexyl]-4H,6H-2,3,5,10b-tetraaza-benzo[e]azulene-5-carboxylic acid tert-butyl ester] | 0.302 |
| Cc1csc([C@H]2CC[C@H](c3nnc4n3-c3ccc(Cl)cc3CNC4)CC2)n1 [Example 17, trans-8-Chloro-1-[4-(4-methyl-thiazol-2-yl)-cyclohexyl]-5,6-dihydro-4H-2,3,5,10b-tetraaza-benzo[e]azulene] | 7.59 |
| Cc1csc([C@H]2CC[C@H](c3nnc4n3-c3ccc(Cl)cc3CN(C)C4)CC2)n1 [Example 18, trans-8-Chloro-5-methyl-1-[4-(4-methyl-thiazol-2-yl)-cyclohexyl]-5,6-dihydro-4H-2,3,5,10b-tetraaza-benzo[e]azulene] | 1.7 |
| Cc1nc([C@H]2CC[C@H](c3nnc4n3-c3ccc(Cl)cc3CN(C(=O)OC(C)(C)C)C4)CC2)cs1 [Example 19, trans-8-Chloro-1-[4-(2-methyl-thiazol-4-yl)-cyclohexyl]-4H,6H-2,3,5,10b-tetraaza-benzo[e]azulene-5-carboxylic acid tert-butyl ester] | 0.2 |
| Cc1nc([C@H]2CC[C@H](c3nnc4n3-c3ccc(Cl)cc3CNC4)CC2)cs1 [Example 20, trans-8-Chloro-1-[4-(2-methyl-thiazol-4-yl)-cyclohexyl]-5,6-dihydro-4H-2,3,5,10b-tetraaza-benzo[e]azulene] | 12.3 |
| Cc1nc([C@H]2CC[C@H](c3nnc4n3-c3ccc(Cl)cc3CN(C)C4)CC2)cs1 [Example 21, trans-8-Chloro-5-methyl-1-[4-(2-methyl-thiazol-4-yl)-cyclohexyl]-5,6-dihydro-4H-2,3,5,10b-tetraaza-benzo[e]azulene] | 1.7 |
| Cc1cc([C@H]2CC[C@H](c3nnc4n3-c3ccc(Cl)cc3CN(C(=O)OC(C)(C)C)C4)CC2)no1 [Example 22, trans-8-Chloro-1-[4-(5-methyl-isoxazol-3-yl)-cyclohexyl]-4H,6H-2,3,5,10b-tetraaza-benzo[e]azulene-5-carboxylic acid tert-butyl ester] | 0.302 |
| Cc1cc([C@H]2CC[C@H](c3nnc4n3-c3ccc(Cl)cc3CNC4)CC2)no1 [Example 23, trans-8-Chloro-1-[4-(5-methyl-isoxazol-3-yl)-cyclohexyl]-5,6-dihydro-4H-2,3,5,10b-tetraaza-benzo[e]azulene hydrochloride] | 6.46 |

Source: patent publication US8513238B2 (Hoffmann-La Roche Inc., priority 2010, dated 2013)
